According to patent publication US8835479B2, “Agent for fungal dermatitis” (Nihon Nohyaku Co., Ltd., priority 2007, dated 2014):

Test system: Malassezia restricta clinical isolate (R-4)
Test: Treatment effect on guinea pig seborrheic dermatitis model
Type: in vivo
Settings: 1% luliconazole cream, 0.1 mL/inoculation site/day for 3 days, compared with 2% ketoconazole cream
Procedure: Efficacy Evaluation Test 2. Treatment Effect on Guinea Pig Seborrheic Dermatitis Model
A guinea pig seborrheic dermatitis model was prepared using Malassezia restricta (Malassezia (M.) restricta) as a pathogenic fungus, and a skin symptom improving effect and a mycological treatment effect of 1% luliconazole cream were evaluated. As a comparative drug, 2% ketoconazole cream was used.
Luliconazole was prepared by the Applicant, and as 2% ketoconazole, a commercially available preparation was purchased and used.
As Malassezia restricta, a clinical isolate (R-4) isolated and identified by Teikyo University Institute of Medical Mycology was used. 2.5 mL of a modified Leeming (Leeming and Notman) liquid medium (m-LN. containing olive oil) was added per 1 g wet weight of the precultured strain for suspending therein to give an inoculum. […]
The hair on the back of the animal was shaved, and two inoculation sites (diameter 2 cm) were placed on either side of the back skin symmetrically. […] The skin symptoms were observed through the experiment from the inoculation starting day to the day of sacrifice and recorded by using the score. […] The skin section was successively observed from one end to the other end and the fungal content was evaluated by the criteria shown in the Table. The detection frequency of fungus in each section was determined. […]

N#C/C(=C1/SC[C@@H](c2ccc(Cl)cc2Cl)S1)n1ccnc1 [Luliconazole, (−)-(E)-[(4R)-(2,4-dichlorophenyl)-1,3-dithioran-2-ylidene](1H-imidazol-1-yl)acetonitrile]
mycological treatment effect (PAS-stained skin sections, FIG. 2): showed mycological cure | skin symptom improving effect (FIG. 1): improved skin symptom
